# Test results reported in US10202361B2, “Pyridazinones as herbicides” (E I DU PONT DE NEMOURS AND COMPANY, priority 2014, dated 2019).
# Columns and labels:
# Assay in all cases: Test E pre-/postemergence greenhouse herbicide test
# Format in all cases: in vivo
# [1] = test system: arrowleaf sida (Sida rhombifolia); details: scale 0 to 100
# Source text: (§1) Seeds of plant species selected from corn (Zea mays), soybean (Glycine max), lambsquarters (Chenopodium album), poinsettia, wild (wild poinsettia, Euphorbia heterophylla), pigweed, palmer (palmer pigweed, Amaranthus palmeri), waterhemp (common waterhemp, Amaranthus rudis), surinam grass (Brachiaria decumbens), crabgrass, large (large crabgrass Digitaria sanguinalis), crabgrass, Brazil (Brazilian crabgrass, Digitaria horizontalis), panicum, fall (fall panicum, Panicum dichotomiflorum), foxtail, giant (giant foxtail, Setaria faberii), foxtail, green (green foxtail, Setaria viridis), goosegrass (Eleusine indica), johnsongrass (Sorghum halepense), ragweed (common ragweed, Ambrosia elatior), barnyardgrass (Echinochloa crus-galli), sandbur (southern sandbur, Cenchrus echinatus), arrowleaf sida (Sida rhombifolia), ryegrass, Italian (Italian ryegrass, Lolium multiflorum), dayflower, VA (Virginia dayflower, Commelina virginica), field bindweed (Convolvulus arvensis), cocklebur (common cocklebur, Xanthium strumarium), morningglory (Ipomoea coccinea), nightshade (eastern black nightshade, Solanum ptycanthum), kochia (Kochia scoparia), nutsedge, yellow (yellow nutsedge, Cyperus esculentus), smartweed (ladysthumb smartweed, Polygonum persicaria), velvetleaf (Abutilon theophrasti), and beggarticks (hairy beggarticks, Bidens pilosa), were planted into a silt loam soil and treated preemergence with test chemicals formulated in a non-phytotoxic solvent mixture which included a surfactant.
# (§2) At the same time, plants from these crop and weed species and also waterhemp_RES1, (ALS & Triazine resistant common waterhemp, Amaranthus rudis), and waterhemp_RES2, (ALS & HPPD resistant common waterhemp, Amaranthus rudis) were planted in pots containing Redi-Earth® planting medium (Scotts Company, 14111 Scottslawn Road, Marysville, Ohio 43041) comprising spaghnum peat moss, vermiculite, wetting agent and starter nutrients were treated with postemergence applications of test chemicals formulated in the same manner. Plants ranged in height from 2 to 18 cm for postemergence treatments (1- to 4-leaf stage). Treated plants and controls were maintained in a greenhouse for 14 to 21 d, after which time all species were compared to controls and visually evaluated. Plant response ratings, summarized in Table E, are based on a scale of 0 to 100 where 0 is no effect and 100 is complete control. A dash (-) response means no test result.
# [2] = test system: beggarticks (hairy beggarticks, Bidens pilosa); details: scale 0 to 100
# Source text: as §1, §2
# [3] = test system: corn (Zea mays); details: scale 0 to 100
# Source text: as §1, §2
# [4] = test system: crabgrass, Brazil (Brazilian crabgrass, Digitaria horizontalis); details: scale 0 to 100
# Source text: as §1, §2
# [5] = test system: field bindweed (Convolvulus arvensis); details: scale 0 to 100
# Source text: as §1, §2
# [6] = test system: johnsongrass (Sorghum halepense); details: Preemergence, scale 0 to 100
# Source text: as §1, §2
# [7] = test system: kochia (Kochia scoparia); details: Preemergence, scale 0 to 100
# Source text: as §1, §2
# [8] = test system: lambsquarters (Chenopodium album); details: Preemergence, scale 0 to 100
# Source text: as §1, §2
# [9] = test system: morningglory (Ipomoea coccinea); details: Preemergence, scale 0 to 100
# Source text: as §1, §2
# [10] = test system: nightshade (eastern black nightshade, Solanum ptycanthum); details: Preemergence, scale 0 to 100
# Source text: as §1, §2
# [11] = test system: panicum, fall (fall panicum, Panicum dichotomiflorum); details: scale 0 to 100
# Source text: as §1, §2
# [12] = test system: pigweed, palmer (palmer pigweed, Amaranthus palmeri); details: scale 0 to 100
# Source text: as §1, §2
# [13] = test system: ryegrass, Italian (Italian ryegrass, Lolium multiflorum); details: scale 0 to 100
# Source text: as §1, §2
# [14] = test system: soybean (Glycine max); details: scale 0 to 100
# Source text: as §1, §2
# [15] = test system: waterhemp (common waterhemp, Amaranthus rudis); details: scale 0 to 100
# Source text: as §1, §2
compound,measurement,setting,value
"COc1cc(=O)n(-c2ccc(F)cc2)nc1Cc1ccnc(C(F)(F)F)c1 [Compound 17, 2-(4-fluorophenyl)-5-methoxy-6-[[2-(trifluoromethyl)-4-pyridinyl]methyl]-3 (2H)-pyridazinone]",Plant response rating: Arrowleaf Sida,"[1]; Postemergence, 16 g ai/ha",30
same,Plant response rating: Arrowleaf Sida,"[1]; Postemergence, 31 g ai/ha",40
same,Plant response rating: Arrowleaf Sida,"[1]; Postemergence, 62 g ai/ha",50
same,Plant response rating: Arrowleaf Sida,"[1]; Postemergence, 125 g ai/ha",50
same,Plant response rating: Arrowleaf Sida,"[1]; Postemergence, 250 g ai/ha",70
same,Plant response rating: Arrowleaf Sida,"[1]; Preemergence, 16 g ai/ha",0
same,Plant response rating: Arrowleaf Sida,"[1]; Preemergence, 31 g ai/ha",0
same,Plant response rating: Arrowleaf Sida,"[1]; Preemergence, 62 g ai/ha",0
same,Plant response rating: Arrowleaf Sida,"[1]; Preemergence, 125 g ai/ha",0
same,Plant response rating: Arrowleaf Sida,"[1]; Preemergence, 250 g ai/ha",0
same,Plant response rating: Beggarticks,"[2]; Postemergence, 16 g ai/ha",20
same,Plant response rating: Beggarticks,"[2]; Postemergence, 31 g ai/ha",30
same,Plant response rating: Beggarticks,"[2]; Postemergence, 62 g ai/ha",30
same,Plant response rating: Beggarticks,"[2]; Postemergence, 125 g ai/ha",35
same,Plant response rating: Beggarticks,"[2]; Postemergence, 250 g ai/ha",55
same,Plant response rating: Beggarticks,"[2]; Preemergence, 16 g ai/ha",0
same,Plant response rating: Beggarticks,"[2]; Preemergence, 31 g ai/ha",0
same,Plant response rating: Beggarticks,"[2]; Preemergence, 62 g ai/ha",0
same,Plant response rating: Beggarticks,"[2]; Preemergence, 125 g ai/ha",5
same,Plant response rating: Beggarticks,"[2]; Preemergence, 250 g ai/ha",20
same,Plant response rating: Corn,"[3]; Postemergence, 16 g ai/ha",0
same,Plant response rating: Corn,"[3]; Postemergence, 31 g ai/ha",10
same,Plant response rating: Corn,"[3]; Postemergence, 62 g ai/ha",10
same,Plant response rating: Corn,"[3]; Postemergence, 125 g ai/ha",35
same,Plant response rating: Corn,"[3]; Postemergence, 250 g ai/ha",65
same,Plant response rating: Corn,"[3]; Preemergence, 16 g ai/ha",0
same,Plant response rating: Corn,"[3]; Preemergence, 31 g ai/ha",0
same,Plant response rating: Corn,"[3]; Preemergence, 62 g ai/ha",30
same,Plant response rating: Corn,"[3]; Preemergence, 125 g ai/ha",65
same,Plant response rating: Corn,"[3]; Preemergence, 250 g ai/ha",80
same,"Plant response rating: Crabgrass, Brazil","[4]; Postemergence, 16 g ai/ha",20
same,"Plant response rating: Crabgrass, Brazil","[4]; Postemergence, 31 g ai/ha",20
same,"Plant response rating: Crabgrass, Brazil","[4]; Postemergence, 62 g ai/ha",20
same,"Plant response rating: Crabgrass, Brazil","[4]; Postemergence, 125 g ai/ha",30
same,"Plant response rating: Crabgrass, Brazil","[4]; Postemergence, 250 g ai/ha",70
same,"Plant response rating: Crabgrass, Brazil","[4]; Preemergence, 16 g ai/ha",100
same,"Plant response rating: Crabgrass, Brazil","[4]; Preemergence, 31 g ai/ha",100
same,"Plant response rating: Crabgrass, Brazil","[4]; Preemergence, 62 g ai/ha",100
same,"Plant response rating: Crabgrass, Brazil","[4]; Preemergence, 125 g ai/ha",100
same,"Plant response rating: Crabgrass, Brazil","[4]; Preemergence, 250 g ai/ha",100
same,Plant response rating: Field Bindweed,"[5]; Postemergence, 16 g ai/ha",40
same,Plant response rating: Field Bindweed,"[5]; Postemergence, 31 g ai/ha",40
same,Plant response rating: Field Bindweed,"[5]; Postemergence, 62 g ai/ha",50
same,Plant response rating: Field Bindweed,"[5]; Postemergence, 125 g ai/ha",60
same,Plant response rating: Field Bindweed,"[5]; Postemergence, 250 g ai/ha",75
same,Plant response rating: Field Bindweed,"[5]; Preemergence, 16 g ai/ha",0
same,Plant response rating: Field Bindweed,"[5]; Preemergence, 31 g ai/ha",0
same,Plant response rating: Field Bindweed,"[5]; Preemergence, 62 g ai/ha",0
same,Plant response rating: Field Bindweed,"[5]; Preemergence, 125 g ai/ha",5
same,Plant response rating: Field Bindweed,"[5]; Preemergence, 250 g ai/ha",98
same,Plant response rating: Johnsongrass,[6]; 16 g ai/ha,0
same,Plant response rating: Johnsongrass,[6]; 31 g ai/ha,10
same,Plant response rating: Johnsongrass,[6]; 62 g ai/ha,35
same,Plant response rating: Johnsongrass,[6]; 125 g ai/ha,75
same,Plant response rating: Johnsongrass,[6]; 250 g ai/ha,90
same,Plant response rating: Kochia,[7]; 16 g ai/ha,70
same,Plant response rating: Kochia,[7]; 31 g ai/ha,90
same,Plant response rating: Kochia,[7]; 62 g ai/ha,95
same,Plant response rating: Kochia,[7]; 125 g ai/ha,98
same,Plant response rating: Kochia,[7]; 250 g ai/ha,98
same,Plant response rating: Lambsquarters,[8]; 16 g ai/ha,98
same,Plant response rating: Lambsquarters,[8]; 31 g ai/ha,98
same,Plant response rating: Lambsquarters,[8]; 62 g ai/ha,98
same,Plant response rating: Lambsquarters,[8]; 125 g ai/ha,98
same,Plant response rating: Lambsquarters,[8]; 250 g ai/ha,100
same,Plant response rating: Morningglory,[9]; 16 g ai/ha,0
same,Plant response rating: Morningglory,[9]; 31 g ai/ha,35
same,Plant response rating: Morningglory,[9]; 62 g ai/ha,60
same,Plant response rating: Morningglory,[9]; 125 g ai/ha,65
same,Plant response rating: Morningglory,[9]; 250 g ai/ha,70
same,Plant response rating: Nightshade,[10]; 16 g ai/ha,0
same,Plant response rating: Nightshade,[10]; 31 g ai/ha,80
same,Plant response rating: Nightshade,[10]; 62 g ai/ha,98
same,Plant response rating: Nightshade,[10]; 125 g ai/ha,98
same,Plant response rating: Nightshade,[10]; 250 g ai/ha,98
same,"Plant response rating: Panicum, Fall","[11]; Postemergence, 16 g ai/ha",15
same,"Plant response rating: Panicum, Fall","[11]; Postemergence, 31 g ai/ha",20
same,"Plant response rating: Panicum, Fall","[11]; Postemergence, 62 g ai/ha",20
same,"Plant response rating: Panicum, Fall","[11]; Postemergence, 125 g ai/ha",30
same,"Plant response rating: Panicum, Fall","[11]; Postemergence, 250 g ai/ha",50
same,"Plant response rating: Panicum, Fall","[11]; Preemergence, 16 g ai/ha",80
same,"Plant response rating: Panicum, Fall","[11]; Preemergence, 31 g ai/ha",90
same,"Plant response rating: Panicum, Fall","[11]; Preemergence, 62 g ai/ha",98
same,"Plant response rating: Panicum, Fall","[11]; Preemergence, 125 g ai/ha",100
same,"Plant response rating: Panicum, Fall","[11]; Preemergence, 250 g ai/ha",100
same,"Plant response rating: Pigweed, Palmer","[12]; Postemergence, 16 g ai/ha",20
same,"Plant response rating: Pigweed, Palmer","[12]; Postemergence, 31 g ai/ha",20
same,"Plant response rating: Pigweed, Palmer","[12]; Postemergence, 62 g ai/ha",30
same,"Plant response rating: Pigweed, Palmer","[12]; Postemergence, 125 g ai/ha",80
same,"Plant response rating: Pigweed, Palmer","[12]; Postemergence, 250 g ai/ha",100
same,"Plant response rating: Pigweed, Palmer","[12]; Preemergence, 16 g ai/ha",0
same,"Plant response rating: Pigweed, Palmer","[12]; Preemergence, 31 g ai/ha",0
same,"Plant response rating: Pigweed, Palmer","[12]; Preemergence, 62 g ai/ha",25
same,"Plant response rating: Pigweed, Palmer","[12]; Preemergence, 125 g ai/ha",80
same,"Plant response rating: Pigweed, Palmer","[12]; Preemergence, 250 g ai/ha",100
same,"Plant response rating: Ryegrass, Italian","[13]; Postemergence, 16 g ai/ha",0
same,"Plant response rating: Ryegrass, Italian","[13]; Postemergence, 31 g ai/ha",0
same,"Plant response rating: Ryegrass, Italian","[13]; Postemergence, 62 g ai/ha",0
same,"Plant response rating: Ryegrass, Italian","[13]; Postemergence, 125 g ai/ha",0
same,"Plant response rating: Ryegrass, Italian","[13]; Postemergence, 250 g ai/ha",15
same,"Plant response rating: Ryegrass, Italian","[13]; Preemergence, 16 g ai/ha",20
same,"Plant response rating: Ryegrass, Italian","[13]; Preemergence, 31 g ai/ha",25
same,"Plant response rating: Ryegrass, Italian","[13]; Preemergence, 62 g ai/ha",25
same,"Plant response rating: Ryegrass, Italian","[13]; Preemergence, 125 g ai/ha",50
same,"Plant response rating: Ryegrass, Italian","[13]; Preemergence, 250 g ai/ha",75
same,Plant response rating: Soybean,"[14]; Postemergence, 16 g ai/ha",30
same,Plant response rating: Soybean,"[14]; Postemergence, 31 g ai/ha",30
same,Plant response rating: Soybean,"[14]; Postemergence, 62 g ai/ha",50
same,Plant response rating: Soybean,"[14]; Postemergence, 125 g ai/ha",60
same,Plant response rating: Soybean,"[14]; Postemergence, 250 g ai/ha",85
same,Plant response rating: Soybean,"[14]; Preemergence, 16 g ai/ha",0
same,Plant response rating: Soybean,"[14]; Preemergence, 31 g ai/ha",0
same,Plant response rating: Soybean,"[14]; Preemergence, 62 g ai/ha",0
same,Plant response rating: Soybean,"[14]; Preemergence, 125 g ai/ha",65
same,Plant response rating: Soybean,"[14]; Preemergence, 250 g ai/ha",80
same,Plant response rating: Waterhemp,"[15]; Postemergence, 16 g ai/ha",40
same,Plant response rating: Waterhemp,"[15]; Postemergence, 31 g ai/ha",50
same,Plant response rating: Waterhemp,"[15]; Postemergence, 62 g ai/ha",80
same,Plant response rating: Waterhemp,"[15]; Postemergence, 125 g ai/ha",85
same,Plant response rating: Waterhemp,"[15]; Postemergence, 250 g ai/ha",95
same,Plant response rating: Waterhemp,"[15]; Preemergence, 16 g ai/ha",75
same,Plant response rating: Waterhemp,"[15]; Preemergence, 31 g ai/ha",98
same,Plant response rating: Waterhemp,"[15]; Preemergence, 62 g ai/ha",98
same,Plant response rating: Waterhemp,"[15]; Preemergence, 125 g ai/ha",98
same,Plant response rating: Waterhemp,"[15]; Preemergence, 250 g ai/ha",98
